Measurements from ChEMBL document CHEMBL1201862, “PubChem BioAssay data set” (2004).
Activity calls are given as the source filed them.

Key:
[1] = target: Glyceraldehyde-3-phosphate dehydrogenase (Homo sapiens, UniProt P04406)
[2] = Counterscreen for inhibitors of Trypanosoma brucei methionyl tRNA synthetase (MetRS): Luminescence-based cell-based high throughput dose response assay to identify compounds that are cytotoxic to Jurkat human T lymphocyte cells.; type: functional
[3] = cytotoxicity in HEK-293T cells, dose response, cytotoxicity control for BCR NF-kB inhibitor project, luminescence, B-cell screen hits (AID 489021); type: functional, cell-based;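 also: HEK-293T cells carrying an NF-kB luciferase reporter; cells exposed to compound for about 14 hours before viability readout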
[4] = target: T1, Sentrin-specific protease 6 (Homo sapiens, UniProt Q9GZR1); type: functional;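 also: Luminescence-based dose-response confirmatory assay of SENP6 inhibition, following up an ultra-high-throughput screen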
T1 sequence (Q9GZR1 whole entry): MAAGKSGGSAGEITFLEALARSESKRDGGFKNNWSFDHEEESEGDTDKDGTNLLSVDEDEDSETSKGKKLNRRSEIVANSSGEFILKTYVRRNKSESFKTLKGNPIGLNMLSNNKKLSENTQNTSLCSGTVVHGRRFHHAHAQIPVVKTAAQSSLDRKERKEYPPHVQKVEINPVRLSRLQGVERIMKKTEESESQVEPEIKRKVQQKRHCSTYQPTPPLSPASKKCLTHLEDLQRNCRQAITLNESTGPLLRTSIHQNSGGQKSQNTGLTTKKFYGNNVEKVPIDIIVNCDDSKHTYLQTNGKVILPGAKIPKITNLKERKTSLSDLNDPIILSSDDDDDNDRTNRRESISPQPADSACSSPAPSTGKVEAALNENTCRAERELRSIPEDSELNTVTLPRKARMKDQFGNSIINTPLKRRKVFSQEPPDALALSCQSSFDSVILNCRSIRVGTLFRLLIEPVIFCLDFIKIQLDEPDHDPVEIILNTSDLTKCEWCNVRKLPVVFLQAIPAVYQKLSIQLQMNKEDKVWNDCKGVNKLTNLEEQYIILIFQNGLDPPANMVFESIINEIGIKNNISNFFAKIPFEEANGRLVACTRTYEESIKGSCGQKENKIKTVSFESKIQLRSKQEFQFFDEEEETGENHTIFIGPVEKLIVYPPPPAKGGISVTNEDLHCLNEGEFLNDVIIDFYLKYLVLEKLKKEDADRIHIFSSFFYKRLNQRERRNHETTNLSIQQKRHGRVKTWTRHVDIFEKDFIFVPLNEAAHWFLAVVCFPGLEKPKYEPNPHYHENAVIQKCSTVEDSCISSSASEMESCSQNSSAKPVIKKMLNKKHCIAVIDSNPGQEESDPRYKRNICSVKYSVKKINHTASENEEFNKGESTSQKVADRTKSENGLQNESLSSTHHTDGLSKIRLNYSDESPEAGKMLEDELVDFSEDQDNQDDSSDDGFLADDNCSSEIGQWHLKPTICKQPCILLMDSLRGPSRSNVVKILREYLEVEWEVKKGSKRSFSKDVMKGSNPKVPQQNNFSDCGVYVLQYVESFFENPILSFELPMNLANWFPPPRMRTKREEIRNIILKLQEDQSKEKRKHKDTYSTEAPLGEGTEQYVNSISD

[5] = target: T2, Sentrin-specific protease 7 (Homo sapiens, UniProt Q9BQF6); type: functional;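 also: Luminescence-based dose-response confirmation of ultra-high-throughput screening hits, measuring inhibition of SENP7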
T2 sequence (Q9BQF6 whole entry): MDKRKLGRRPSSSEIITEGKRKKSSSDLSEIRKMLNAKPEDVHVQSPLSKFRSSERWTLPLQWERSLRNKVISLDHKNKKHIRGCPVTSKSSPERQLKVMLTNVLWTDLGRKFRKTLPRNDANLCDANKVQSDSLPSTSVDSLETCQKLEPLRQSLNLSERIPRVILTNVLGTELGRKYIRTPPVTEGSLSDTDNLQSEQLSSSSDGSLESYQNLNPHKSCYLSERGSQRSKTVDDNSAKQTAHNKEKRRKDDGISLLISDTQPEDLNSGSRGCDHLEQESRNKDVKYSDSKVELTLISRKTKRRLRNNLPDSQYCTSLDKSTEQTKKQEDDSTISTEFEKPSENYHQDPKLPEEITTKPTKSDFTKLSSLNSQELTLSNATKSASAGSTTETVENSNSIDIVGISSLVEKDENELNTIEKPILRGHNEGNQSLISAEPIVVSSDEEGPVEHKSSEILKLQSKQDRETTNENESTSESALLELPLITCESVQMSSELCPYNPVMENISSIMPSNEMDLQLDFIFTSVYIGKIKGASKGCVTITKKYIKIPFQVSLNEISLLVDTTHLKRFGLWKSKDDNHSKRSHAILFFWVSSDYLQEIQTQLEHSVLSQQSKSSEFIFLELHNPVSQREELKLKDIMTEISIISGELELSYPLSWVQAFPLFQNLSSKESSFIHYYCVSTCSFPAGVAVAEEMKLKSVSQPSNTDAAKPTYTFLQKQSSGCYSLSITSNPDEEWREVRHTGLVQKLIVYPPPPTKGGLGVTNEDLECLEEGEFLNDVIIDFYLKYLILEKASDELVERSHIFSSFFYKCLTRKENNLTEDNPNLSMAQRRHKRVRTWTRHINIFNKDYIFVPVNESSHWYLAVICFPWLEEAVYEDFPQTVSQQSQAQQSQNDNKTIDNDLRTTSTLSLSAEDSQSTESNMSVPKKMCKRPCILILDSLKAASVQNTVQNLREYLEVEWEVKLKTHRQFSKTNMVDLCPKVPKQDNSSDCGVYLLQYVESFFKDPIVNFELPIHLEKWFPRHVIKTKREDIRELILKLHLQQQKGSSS

H4 = experiment: Luminescence Cell-Based Dose Response HTS to Identify Activators of 5'UTR Stem-Loop Driven Prion Protein mRNA Translation in H4 Neuroglioblastoma Cells. [Related pubchem assays: 1829 (Project Summary), 1814 (Primary HTS)]; type: functional; settings: Homo sapiens
[6] = Luminescence Cell-Based Dose Response HTS to Identify Activators of Luciferase Translation or Activity in H4 […] Cells. [Related pubchem assays: 1829 (Project Summary), 1814 (Primary HTS)]; type: functional
Caspase-3 = target: T3, Caspase-3 (Homo sapiens, UniProt P42574); type: functional;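 also: Dose-response selectivity test against caspase-3 for candidate inhibitors of sentrin-specific proteases (SENPs)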
T3 sequence (P42574 whole entry): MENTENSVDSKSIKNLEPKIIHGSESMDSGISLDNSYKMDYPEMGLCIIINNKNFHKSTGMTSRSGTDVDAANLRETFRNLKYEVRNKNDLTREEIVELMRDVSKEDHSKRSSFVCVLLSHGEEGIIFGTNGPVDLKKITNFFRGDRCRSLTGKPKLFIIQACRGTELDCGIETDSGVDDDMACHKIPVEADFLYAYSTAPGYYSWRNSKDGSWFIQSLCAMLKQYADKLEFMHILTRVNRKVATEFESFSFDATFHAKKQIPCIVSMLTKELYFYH

[7] = target: T4, Sentrin-specific protease 8 (Homo sapiens, UniProt Q96LD8); type: functional;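 also: luminescence read-out of SENP8 inhibition, dose-response confirmation following an ultra-high-throughput screen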
T4 sequence (Q96LD8 whole entry): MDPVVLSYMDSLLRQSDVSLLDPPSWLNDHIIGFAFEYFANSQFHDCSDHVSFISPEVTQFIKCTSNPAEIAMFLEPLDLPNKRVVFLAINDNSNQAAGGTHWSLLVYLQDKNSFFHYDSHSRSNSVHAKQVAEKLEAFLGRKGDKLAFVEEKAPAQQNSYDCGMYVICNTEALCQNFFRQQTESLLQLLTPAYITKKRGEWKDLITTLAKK

[8] = target: T5, Ubiquitin-conjugating enzyme E2 N (Homo sapiens, UniProt P61088); type: functional;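 also: Dose-response confirmation in a TR-FRET assay detecting UBC13-driven polyubiquitin chain formation, inhibition measured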
T5 sequence (P61088 whole entry): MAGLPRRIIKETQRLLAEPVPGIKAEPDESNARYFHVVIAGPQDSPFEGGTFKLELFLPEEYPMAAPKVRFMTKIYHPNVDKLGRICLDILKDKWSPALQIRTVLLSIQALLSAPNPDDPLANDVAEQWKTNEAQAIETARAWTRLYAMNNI

[9] = target: T6, DNA repair protein RAD52 homolog (Homo sapiens, UniProt P43351); type: functional, biochemical
T6 sequence (P43351 whole entry): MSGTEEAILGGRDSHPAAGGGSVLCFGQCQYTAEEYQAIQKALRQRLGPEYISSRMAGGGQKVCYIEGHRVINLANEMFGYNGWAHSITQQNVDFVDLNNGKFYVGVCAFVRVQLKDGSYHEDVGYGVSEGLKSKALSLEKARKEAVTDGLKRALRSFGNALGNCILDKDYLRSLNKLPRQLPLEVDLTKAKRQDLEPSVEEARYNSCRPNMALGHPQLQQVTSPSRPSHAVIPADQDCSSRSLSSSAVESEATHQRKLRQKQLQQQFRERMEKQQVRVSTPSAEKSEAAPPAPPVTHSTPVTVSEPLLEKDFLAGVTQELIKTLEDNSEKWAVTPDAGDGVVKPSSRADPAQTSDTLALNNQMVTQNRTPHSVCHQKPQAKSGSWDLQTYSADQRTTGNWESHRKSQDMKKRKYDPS

Prothrombin = Prothrombin (Homo sapiens, UniProt P00734); experiment: Thrombin 1536 HTS Dose Response Confirmation. [Related pubchem assays: 1046 (Thrombin 1536 HTS; hits were confirmed in this assay)]; type: functional
[10] = target: T7, Methionyl-tRNA synthetase, putative (Trypanosoma brucei brucei, UniProt Q38C91); type: functional, Trypanosoma brucei brucei strain 927/4 GUTat10.1
T7 sequence (Q38C91 whole entry): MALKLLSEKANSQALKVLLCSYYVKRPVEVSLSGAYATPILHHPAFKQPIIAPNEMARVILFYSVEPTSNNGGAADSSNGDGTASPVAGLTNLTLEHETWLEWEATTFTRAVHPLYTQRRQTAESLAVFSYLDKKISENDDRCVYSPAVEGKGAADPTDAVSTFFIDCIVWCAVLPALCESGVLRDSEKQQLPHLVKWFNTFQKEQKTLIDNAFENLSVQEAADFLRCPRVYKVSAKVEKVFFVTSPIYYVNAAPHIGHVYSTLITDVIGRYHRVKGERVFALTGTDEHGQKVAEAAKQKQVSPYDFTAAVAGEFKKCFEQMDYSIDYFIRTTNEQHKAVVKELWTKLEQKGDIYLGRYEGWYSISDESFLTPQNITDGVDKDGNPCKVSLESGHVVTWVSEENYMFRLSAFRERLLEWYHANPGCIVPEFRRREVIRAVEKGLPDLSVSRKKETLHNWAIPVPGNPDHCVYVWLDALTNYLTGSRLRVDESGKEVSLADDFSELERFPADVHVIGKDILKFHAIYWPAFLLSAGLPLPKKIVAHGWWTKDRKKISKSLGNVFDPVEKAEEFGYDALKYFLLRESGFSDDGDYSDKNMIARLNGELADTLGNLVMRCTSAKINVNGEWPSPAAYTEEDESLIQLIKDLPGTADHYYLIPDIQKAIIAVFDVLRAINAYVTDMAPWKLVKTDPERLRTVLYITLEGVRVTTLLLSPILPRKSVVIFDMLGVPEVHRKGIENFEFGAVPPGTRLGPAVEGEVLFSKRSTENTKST

[11] = target: T7, Methionyl-tRNA synthetase, putative; type: functional, Trypanosoma brucei brucei strain 927/4 GUTat10.1; remark: listed apart in the source
[12] = cytotoxicity in OVCAR8 ovarian cancer cells, dose response, PAX8 project, cell-based, plate reader, dry powder samples (AID 743197); type: functional; settings: OVCAR-8
Paired box protein Pax-8 = Paired box protein Pax-8 (Homo sapiens, UniProt Q06710); experiment: inhibitors of PAX8-driven TPO luciferase reporter, dose response, RMG-I cells, cherry-pick (AID 687027); type: functional, cell-based;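 also: luciferase reporter driven by Pax8 target thyroperoxidase promoter measured by SteadyGlo luminescence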
Paired box protein Pax-8, sequence (Q06710 whole entry): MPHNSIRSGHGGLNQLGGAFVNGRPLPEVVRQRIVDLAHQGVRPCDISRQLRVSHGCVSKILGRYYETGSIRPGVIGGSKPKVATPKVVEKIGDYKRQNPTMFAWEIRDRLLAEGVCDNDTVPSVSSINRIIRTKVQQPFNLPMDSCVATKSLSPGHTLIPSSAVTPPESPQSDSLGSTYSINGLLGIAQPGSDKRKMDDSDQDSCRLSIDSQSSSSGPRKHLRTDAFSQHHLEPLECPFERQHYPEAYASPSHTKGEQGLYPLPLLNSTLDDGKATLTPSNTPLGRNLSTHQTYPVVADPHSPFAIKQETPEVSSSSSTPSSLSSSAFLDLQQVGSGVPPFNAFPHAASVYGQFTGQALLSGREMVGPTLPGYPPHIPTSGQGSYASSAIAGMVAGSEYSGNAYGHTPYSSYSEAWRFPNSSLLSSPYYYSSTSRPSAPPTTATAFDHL

[13] = target: Luciferin 4-monooxygenase (Photinus pyralis, UniProt P08659); experiment: firefly luciferase enzyme inhibitors, dose response, biochemical, luminescence (AID 1891)
Luciferin 4-monooxygenase, sequence (P08659 whole entry): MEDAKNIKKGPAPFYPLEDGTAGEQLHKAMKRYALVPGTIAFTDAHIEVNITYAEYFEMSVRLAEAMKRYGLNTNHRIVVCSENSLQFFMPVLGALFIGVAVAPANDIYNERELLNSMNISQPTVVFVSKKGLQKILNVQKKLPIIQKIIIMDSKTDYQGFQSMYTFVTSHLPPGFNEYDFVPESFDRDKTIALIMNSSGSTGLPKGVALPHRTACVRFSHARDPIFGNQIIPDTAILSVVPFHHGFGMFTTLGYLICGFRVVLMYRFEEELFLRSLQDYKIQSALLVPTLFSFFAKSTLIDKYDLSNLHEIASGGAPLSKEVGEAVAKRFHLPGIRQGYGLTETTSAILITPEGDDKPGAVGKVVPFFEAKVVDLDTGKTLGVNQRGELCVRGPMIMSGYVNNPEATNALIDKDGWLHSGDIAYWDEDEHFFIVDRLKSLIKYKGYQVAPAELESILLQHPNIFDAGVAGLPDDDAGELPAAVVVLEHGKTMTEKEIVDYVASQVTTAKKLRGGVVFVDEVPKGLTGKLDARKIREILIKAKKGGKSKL

[14] = target: FAD-linked sulfhydryl oxidase ALR (Homo sapiens, UniProt P55789); experiment: inhibitors of human ALR sulfhydryl oxidase, dose response, biochemical, H2O2 detection, luminescence, cherry-pick (AID 493248)
FAD-linked sulfhydryl oxidase ALR, sequence (P55789 whole entry): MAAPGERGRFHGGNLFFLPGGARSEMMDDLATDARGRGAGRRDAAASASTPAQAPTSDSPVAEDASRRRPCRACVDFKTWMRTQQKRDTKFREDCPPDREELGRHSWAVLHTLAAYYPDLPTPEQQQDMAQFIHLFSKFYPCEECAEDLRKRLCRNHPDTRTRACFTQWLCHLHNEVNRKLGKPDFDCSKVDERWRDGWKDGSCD

[15] = Luminescence Cell-Based Dose Confirmation HTS to Identify Inhibitors of Platelet Dense Granule Release. [Related pubchem assays: 1663 (Primary HTS), 1678 (Summary of Project)]; type: functional

Glyceraldehyde-3-phosphate dehydrogenase, sequence (P04406 whole entry): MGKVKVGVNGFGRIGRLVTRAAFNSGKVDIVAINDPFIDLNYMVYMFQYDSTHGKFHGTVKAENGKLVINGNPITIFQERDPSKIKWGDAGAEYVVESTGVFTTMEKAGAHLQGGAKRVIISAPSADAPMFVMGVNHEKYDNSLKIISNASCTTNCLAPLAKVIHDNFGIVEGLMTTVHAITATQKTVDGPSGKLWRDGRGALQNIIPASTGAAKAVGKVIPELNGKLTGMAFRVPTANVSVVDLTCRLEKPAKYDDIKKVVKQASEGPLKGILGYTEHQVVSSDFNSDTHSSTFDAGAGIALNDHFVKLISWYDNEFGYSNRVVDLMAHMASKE

## O=C1C(Cl)=C(N2CCOCC2)C(=O)N1c1ccnc(Cl)c1
[1]
  IC50: > 50 µM (inconclusive)

## CC(C)(Oc1ccc(Cl)cc1)C(=O)OCc1nc(O)c2sccc2n1
[2]
  IC50: 83.3 µM (inactive)

## C=CCOC(=O)COc1cc(C)cc2oc(=O)c3c(c12)CCC3
[3]
  IC50: > 80 µM (inactive)

## CCOC(=O)c1sc(Nc2ccccc2Cl)nc1C
[4]
  IC50: 19.8 µM (active)
[5]
  IC50: 8.78 µM (active)
H4
  EC50: 43.9 µM (active)
[6]
  EC50: 1.18 µM (active)
Caspase-3
  IC50: 26.6 µM (active)
[7]
  IC50: 20.3 µM (active)

## OCCN1CCN(CC/C=C2/c3ccccc3Sc3ccc(C(F)(F)F)cc32)CC1
[8]
  IC50: > 20 µM (inactive)
[9]
  AC50: 21.2 µM (active)

## COc1ccc(CNc2nc(-c3cccnc3)nn2C(=O)c2ccco2)cc1
Prothrombin
  IC50: 1.19 µM (active)

## CC(C)(Oc1ccc(Cl)cc1)C(=O)OCc1nc2ccsc2c(=O)[nH]1
[10]
  IC50: 21.6 µM (inactive)
[11]
  IC50: 9.89 µM (active)

## O=C1C2C3C=CC(C3)C2C(=O)N1c1n[nH]c(CCc2ccccc2)n1 (stereo not given)
[1]
  IC50: > 100 µM (not active)

## NNC(=O)COc1ccc(-c2nccc(-c3ccc(F)cc3)n2)cc1
[3]
  IC50: > 80 µM (inactive)

## S=C(NCc1cccs1)NCC1CCCO1 (stereo not given)
Prothrombin
  IC50: > 50 µM (not active)

## O=C(NCc1cc(Cl)cc(Cl)c1)c1ccc2[nH]c([C@H]3C[C@H](O)[C@@H](CO)O3)nc2c1
[2]
  IC50: 83.3 µM (inactive)
[10]
  IC50: 23.8 µM (inactive)
[11]
  IC50: 13.5 µM (inactive)

## COc1ccc(NC(=O)Nc2ccc3c(c2)C(=O)N([C@@H](C)CO)C[C@@H](C)[C@@H](CN(C)Cc2ccc(Cl)c(Cl)c2)OCCCC[C@@H](C)O3)cc1
[12]
  AC50: 65.4 µM (active)
Paired box protein Pax-8
  AC50: 14.1 µM (active)

## CCOc1ccc(C(=O)NCC(=O)OC(C)C(=O)NCc2ccco2)cc1OCC (stereo not given)
Prothrombin
  IC50: > 50 µM (not active)

## C/C(=C1/SC(=S)N(CCC(=O)O)C1=O)c1ccc(O)cc1
[13]
  EC50: > 112 µM (not active)
[14]
  AC50: 4.14 µM (active)
[2]
  IC50: 83.3 µM (inactive)
[10]
  IC50: 16.6 µM (inactive)
[11]
  IC50: 9.47 µM (active)
[15]
  EC50: > 112 µM (not active)

## CC(C)C[C@@H]1CN=C(N)N1C[C@@H]1CCCN1C[C@@H](C(C)C)N1C[C@@H](Cc2ccccc2)N(CCc2ccc(Cl)c(Cl)c2)C1=N
[9]
  AC50: 16.7 µM (active)
